Source: patent US10807982B2, “Bromodomain inhibitors” (CELGENE QUANTICEL RESEARCH, INC., priority 2015, dated 2020)

Columns and labels:
[1] = system: Raji, human Burkitts lymphoma cells; test: Cell-MTS cellular proliferation assay, Raji; assay type: cell-based; conditions: 168 hr incubation
Protocol: (§1) A colorimetric cellular proliferation assay (Cell-MTS assay) was performed to assess the ability of the heterocyclic derivative […] inhibitors disclosed herein to effect the proliferation of established cancer cell lines.
(§2) The Cell-MTS assay is a 7-day plate-based colorimetric assay which quantifies the amount of newly generated NADH in the presence or absence of test compound. The NADH level is used for the quantification of cancer cell proliferation.
(§3) Established cancer cell lines with a variety of driving mutations were obtained from American Type Culture Collection (ATCC) and routinely passaged according to ATCC protocols. For routine assay, these cells were seeded at densities which enabled ˜90% confluence after 7 days of culture. Raji, human Burkitts lymphoma cells, (cMYC) were seeded at 15,000 cells per 96-well. HL-60, human proleukemia cells, (NRAS, p16, p53, c-Myc amplified) were seeded at 5,000 cells per 96-well. NCI-H460, human non-small cell lung cancer cells. (KRAS, PIK3CA, STLK11, p16) were seeded at 3,000 cells per 96-well. 24 hr after plating, cells received an 11 point dilution of test compound with final concentration ranges from 100 µM to 2.0 nM. Cells were incubated in the presence of compound for 168 hr at 37° C., and 5% CO2. At the end of this incubation period, 80 µL of media is removed and 20 µL of CellTiter 96® AQueous Non-Radioactive Cell Proliferation Assay solution (Promega) was added. The cells were incubated until the OD490 was >0.6. IC50 values were calculated using the IDBS XLfit software package and include background subtracted OD490 values and normalization to DMSO controls. Cellular proliferation IC50 values were uploaded and archived using the Chem Biography Platform. Table 3 provides the results of the in vitro enzyme inhibition assay experiments and the in vitro cell-based assay experiments performed with the compounds disclosed herein: […]

[2] = system: NCI-H460, human non-small cell lung cancer cells; test: Cell-MTS cellular proliferation assay, NCI-H460; assay type: cell-based; conditions: 168 hr incubation
Protocol: as §1, §2, §3

BRD4(BD1) = BRD4(BD1) (Homo sapiens (Human), UniProt O60885); test: In vitro enzyme inhibition assay (BRD4 AlphaScreen, H4-tetraacetyl peptide); assay type: binding; conditions: BRD4(BD1) 2 nM, peptide 15 nM
Protocol: Determination of the IC50 for the heterocyclic derivative BRD4 inhibitors disclosed herein was performed as follows. His-tagged […] was cloned, expressed and purified to homogeneity. Filipakopoulos et al., 468 Nature 1067 (2010). BRD4 binding and inhibition was assessed by monitoring the interaction of biotinylated H4-tetraacetyl peptide (AnaSpec, H4K5/8/12/16(Ac), biotin—labeled) with the target using the AlphaScreen technology (Life Technologies). In a 384-well ProxiPlate BRD4(BD1) (2 nM final) was combined with peptide (15 nM final) in 50 mM HEPES (pH 7.3), 10 mM NaCl, 0.25 mM TCEP, 0.1% (w/v) BSA, and 0.005% (w/v) Brij-35 either in the presence of DMSO (final 0.4% DMSO) or compound dilution series in DMSO. After 20 min incubation at RT, Alpha streptavidin donor beads and Nickel Chelate acceptor beads were added to a final concentration of 5 μg/mL. After 2 hr of equilibration, plates were read on an Envision instrument and the IC50 was calculated using a four parameter non-linear curve fit.
The ability of the compounds disclosed herein to inhibit BRD4 activity was quantified and the respective IC50 value was determined.

[3] = system: HL-60, human proleukemia cells; test: Cell-MTS cellular proliferation assay, HL-60; assay type: cell-based; conditions: HL-60 cells, 168 hr incubation
Protocol: as §1, §2, §3

Structure (SMILES)	IC50 (BRD4(BD1))	further results
CCS(=O)(=O)Nc1cc(-c2cc(C)c(=O)n(C)c2)c2oc(C3CC3)cc2c1	≤ 0.5 µM	IC50 ([1]; Homo sapiens): ≤ 0.5 µM; IC50 ([2]; Homo sapiens): 0.5 to 5 µM; IC50 ([3]; Homo sapiens): ≤ 0.5 µM
Cc1cc(-c2cc(S(C)(=O)=O)ccc2OCC2CC2)c2n(c1=O)CCC2F (racemic) [Example 90, (±)-8-[2-(cyclopropylmethoxy)-5-methylsulfonylphenyl]-1-fluoro-6-methyl-2,3-dihydro-1H-indolizin-5-one]	≤ 0.5 µM	
CCc1cc2cc(S(C)(=O)=O)cc(-c3cn(C)c(=O)c4ccccc34)c2o1 [4-(2-ethyl-5-(methylsulfonyl)benzofuran-7-yl)-2-methylisoquinolin-1(2H)-one, reference compound]	≤ 0.5 µM	IC50 ([1]; Homo sapiens): ≤ 0.5 µM; IC50 ([2]; Homo sapiens): 0.5 to 5 µM; IC50 ([3]; Homo sapiens): ≤ 0.5 µM
CN1Cc2ccc(-c3cn(C)c(=O)c4ccccc34)cc2S1(=O)=O [Example 1, 2-methyl-4-(2-methyl-1,1-dioxo-3H-1,2-benzthiazol-6-yl)isoquinolin-1-one]	0.5 to 5 µM	IC50 ([1]; Homo sapiens): 0.5 to 5 µM; IC50 ([2]; Homo sapiens): 0.5 to 5 µM; IC50 ([3]; Homo sapiens): 0.5 to 5 µM
Cn1cc(-c2ccc3c(c2)S(=O)(=O)NC3)c2ccccc2c1=O [Example 2, 4-(1,1-dioxo-2,3-dihydro-1,2-benzothiazol-6-yl)-2-methylisoquinolin-1-one]	0.5 to 5 µM	IC50 ([1]; Homo sapiens): > 5 µM; IC50 ([2]; Homo sapiens): > 5 µM; IC50 ([3]; Homo sapiens): 0.5 to 5 µM
COc1cc2c(cc1-c1cc(C)c(=O)n(C)c1)S(=O)(=O)N(C)C2 [Example 3, 5-(5-methoxy-2-methyl-1,1-dioxo-3H-1,2-benzothiazol-6-yl)-1,3-dimethylpyridin-2-one]	≤ 0.5 µM	IC50 ([1]; Homo sapiens): > 5 µM; IC50 ([2]; Homo sapiens): > 5 µM; IC50 ([3]; Homo sapiens): 0.5 to 5 µM
COc1cc2c(cc1-c1cn(C)c(=O)c3ccccc13)S(=O)(=O)N(C)C2 [Example 4, 4-(5-methoxy-2-methyl-1,1-dioxo-3H-1,2-benzothiazol-6-yl)-2-methylisoquinolin-1-one]	≤ 0.5 µM	IC50 ([1]; Homo sapiens): 0.5 to 5 µM; IC50 ([2]; Homo sapiens): 0.5 to 5 µM; IC50 ([3]; Homo sapiens): ≤ 0.5 µM
CN1Cc2cc(Oc3ccc(F)cc3F)c(-c3ccc(=O)n(C)c3)cc2S1(=O)=O [Example 12, 5-[5-(2,4-difluorophenoxy)-2-methyl-1,1-dioxo-3H-1,2-benzothiazol-6-yl]-1-methylpyridin-2-one]	≤ 0.5 µM	
CCc1cc2cc(S(C)(=O)=O)cc(-c3cc(C)c(=O)n(C)c3)c2o1 [Example 21, 5-(2-ethyl-5-methylsulfonyl-1-benzofuran-7-yl)-1,3-dimethylpyridin-2-one]	≤ 0.5 µM	
Cc1cc(-c2nc(NS(C)(=O)=O)c3nc(C)n(Cc4ccc(F)cc4)c3n2)cn(C)c1=O [Example 22, N-[2-(1,5-dimethyl-6-oxopyridin-3-yl)-9-[(4-fluorophenyl)methyl]-8-methylpurin-6-yl]methanesulfonamide]	≤ 0.5 µM	
Cc1cc(-c2cc(S(C)(=O)=O)cc3cc(-c4ccccc4)oc23)cn(C)c1=O [Example 25, 1,3-dimethyl-5-(5-methylsulfonyl-2-phenyl-1-benzofuran-7-yl)pyridin-2-one]	≤ 0.5 µM	
Cc1cc(-c2cc(NS(C)(=O)=O)c3nc(C)n([C@H](C)c4ccccc4)c3c2)cn(C)c1=O [Example 45, N-[6-(1,5-dimethyl-6-oxopyridin-3-yl)-2-methyl-1-[(1R)-(1-phenylethyl)]benzimidazol-4-yl]methanesulfonamide]		IC50 [1]: ≤ 0.5 µM; IC50 [2]: 0.5 to 5 µM; IC50 [3]: ≤ 0.5 µM
CCS(=O)(=O)Nc1cc(-c2cc(C)c(=O)n(C)c2)c2nc(C3CC3)n(C)c2c1 [Example 54, N-[2-cyclopropyl-7-(1,5-dimethyl-6-oxopyridin-3-yl)-3-methylbenzimidazol-5-yl]ethanesulfonamide]	≤ 0.5 µM	
CCS(=O)(=O)Nc1cc(-c2cn(C)c(=O)c3ccccc23)c2nc(C3CC3)n(C)c2c1 [Example 55, N-[2-cyclopropyl-3-methyl-7-(2-methyl-1-oxoisoquinolin-4-yl)benzimidazol-5-yl]ethanesulfonamide]	≤ 0.5 µM	
COc1cc(-c2cc(CS(C)(=O)=O)cc3nc(C4CC4)oc23)cn(C)c1=O [Example 63, 5-[2-cyclopropyl-5-(methylsulfonylmethyl)-1,3-benzoxazol-7-yl]-3-methoxy-1-methylpyridin-2-one]	≤ 0.5 µM	
CCS(=O)(=O)c1cc(-c2cc(C)c(=O)n(C)c2)cc2c1nc(C)n2CC1CC1 [Example 69, 5-[3-(cyclopropylmethyl)-7-ethylsulfonyl-2-methylbenzimidazol-5-yl]-1,3-dimethylpyridin-2-one]	≤ 0.5 µM	
CCS(=O)(=O)c1cc(-c2cc(OC)c(=O)n(C)c2)cc2c1nc(C)n2CC1CC1 [Example 70, 5-[3-(cyclopropylmethyl)-7-ethylsulfonyl-2-methylbenzimidazol-5-yl]-3-methoxy-1-methylpyridin-2-one]	≤ 0.5 µM	
CCc1nc2c(NS(C)(=O)=O)cc(-c3cc(C)c(=O)n(C)c3)cc2n1CC1CC1 [Example 74, N-[1-(cyclopropylmethyl)-6-(1,5-dimethyl-6-oxopyridin-3-yl)-2-ethylbenzimidazol-4-yl]methanesulfonamide]	≤ 0.5 µM	
CCn1c(-c2cc(C)c(=O)n(C)c2)cc2c(S(C)(=O)=O)cccc21 [Example 75, 5-(1-ethyl-4-methylsulfonylindol-2-yl)-1,3-dimethylpyridin-2-one]	≤ 0.5 µM	
Cc1cc(-c2cc3c(S(C)(=O)=O)cccc3n2CC2CC2)cn(C)c1=O [Example 76, 5-[1-(cyclopropylmethyl)-4-methylsulfonylindol-2-yl]-1,3-dimethylpyridin-2-one]	≤ 0.5 µM	
Cc1cc(-c2cc3c(S(C)(=O)=O)cccc3n2CCC2CC2)cn(C)c1=O [Example 77, 5-[1-(2-cyclopropylethyl)-4-methylsulfonylindol-2-yl]-1,3-dimethylpyridin-2-one]	≤ 0.5 µM	
Cn1cc(-c2cc3c(S(C)(=O)=O)cccc3n2CC2CC2)c2ccccc2c1=O [Example 78, 4-[1-(cyclopropylmethyl)-4-methylsulfonylindol-2-yl]-2-methylisoquinolin-1-one]	≤ 0.5 µM	
Cc1cc(-c2nc(NS(C)(=O)=O)c3nc(C)n(CC4CC4)c3n2)cn(C)c1=O [Example 81, N-[9-(cyclopropylmethyl)-2-(1,5-dimethyl-6-oxopyridin-3-yl)-8-methylpurin-6-yl]methanesulfonamide]	≤ 0.5 µM	
Cc1cc(-c2cc(S(C)(=O)=O)ccc2OCC2CC2)c2n(c1=O)CCC2(F)F [Example 89, 8-[2-(cyclopropylmethoxy)-5-methylsulfonylphenyl]-1,1-difluoro-6-methyl-2,3-dihydroindolizin-5-one]	0.5 to 5 µM	
CCS(=O)(=O)Nc1cc(-c2cc(C)c(=O)n(C)c2)cc2c1nc(OC)n2CC1CC1 [Example 103, N-[1-(cyclopropylmethyl)-6-(1,5-dimethyl-6-oxopyridin-3-yl)-2-methoxybenzimidazol-4-yl]ethanesulfonamide]	≤ 0.5 µM	
Cc1cc(-c2cc(NS(C)(=O)=O)c3c(F)nn(Cc4ccccc4)c3c2)cn(C)c1=O [Example 104, N-[1-benzyl-6-(1,5-dimethyl-6-oxopyridin-3-yl)-3-fluoroindazol-4-yl]methanesulfonamide]	≤ 0.5 µM	
CCS(=O)(=O)Nc1cc(-c2cc(C)c(=O)n(C)c2)cc2c1c(F)nn2Cc1ccc(F)cc1 [Example 105, N-[6-(1,5-dimethyl-6-oxopyridin-3-yl)-3-fluoro-1-[(4-fluorophenyl)methyl]indazol-4-yl]ethanesulfonamide]	≤ 0.5 µM	
CCS(=O)(=O)Nc1cc(-c2cc(C)c(=O)n(C)c2)cc2c1c(F)nn2Cc1ccccc1 [Example 106, N-[1-benzyl-6-(1,5-dimethyl-6-oxopyridin-3-yl)-3-fluoroindazol-4-yl]ethanesulfonamide]	≤ 0.5 µM	
